ChEMBL document CHEMBL4229367, “Identification of multi-target inhibitors of leukotriene and prostaglandin E2 biosynthesis by structural tuning of the FLAP inhibitor BRP-7” (Eur J Med Chem, 2018)

Tests used:
[1] = biological target: T1, Arachidonate 5-lipoxygenase-activating protein (Homo sapiens) (UniProt P20292); test: Inhibition of FLAP in A23187-stimulated human neutrophils assessed as remaining enzyme activity by measuring 5-LO product formation at 1 uM preincubated for 15 mins followed by A23187 and arachidonic acid addition and measured after 10 mins by UV based RP-HPLC analysis (reference value: 100%)
T1 sequence (whole entry): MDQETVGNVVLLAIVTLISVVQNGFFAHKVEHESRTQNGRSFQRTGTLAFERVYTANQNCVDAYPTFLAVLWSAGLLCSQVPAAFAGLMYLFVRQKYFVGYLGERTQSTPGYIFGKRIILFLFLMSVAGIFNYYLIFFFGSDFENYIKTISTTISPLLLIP

[2] = biological target: T2, Arachidonate 5-lipoxygenase-activating protein (Homo sapiens, UniProt P20292); test: Inhibition of FLAP in A23187-stimulated human neutrophils assessed as reduction in 5-LO product formation preincubated for 15 mins followed by A23187 and arachidonic acid addition and measured after 10 mins by UV based RP-HPLC analysis
T2 sequence (P20292 whole entry): T1 sequence (whole entry)

[3] = biological target: T1, Arachidonate 5-lipoxygenase-activating protein (Homo sapiens); test: Inhibition of FLAP in A23187-stimulated human neutrophils assessed as remaining enzyme activity by measuring 5-LO product formation at 0.1 uM preincubated for 15 mins followed by A23187 and arachidonic acid addition and measured after 10 mins by UV based RP-HPLC analysis (reference value: 100%)
[4] = biological target: T3, Prostaglandin E synthase (Homo sapiens) (UniProt O14684); test: Inhibition of mPGES1 in IL-1beta-stimulated human A549 cell microsomal fractions assessed as reduction in PGE2 production at 3 uM preincubated for 15 mins followed by PGH2 substrate addition and measured after 1 min by RP-HPLC analysis relative to control
T3 sequence (whole entry): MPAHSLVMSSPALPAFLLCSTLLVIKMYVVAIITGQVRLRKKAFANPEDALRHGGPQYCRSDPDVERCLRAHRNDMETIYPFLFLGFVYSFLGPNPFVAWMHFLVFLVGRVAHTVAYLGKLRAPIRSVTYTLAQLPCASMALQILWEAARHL

Prostaglandin E synthase = biological target: T4, Prostaglandin E synthase (Homo sapiens, UniProt O14684); test: (§1) Inhibition of mPGES1 in IL-1beta-stimulated human A549 cell microsomal fractions assessed as reduction in PGE2 production preincubated for 15 mins followed by PGH2 substrate addition and measured after 1 min by RP-HPLC analysis relative to control
T4 sequence (O14684 whole entry): T3 sequence (whole entry)

[5] = biological target: T3, Prostaglandin E synthase (Homo sapiens); test: as §1
[6] = biological target: T5, Polyunsaturated fatty acid 5-lipoxygenase (Homo sapiens, UniProt P09917); test: Inhibition of recombinant human 5-LO expressed in Escherichia coli BL21 incubated for 15 mins prior to prewarming for 30 secs followed by CaCl2+ and arachidonic acid addition and measured after 10 mins by RP-HPLC analysis
T5 sequence (P09917 whole entry): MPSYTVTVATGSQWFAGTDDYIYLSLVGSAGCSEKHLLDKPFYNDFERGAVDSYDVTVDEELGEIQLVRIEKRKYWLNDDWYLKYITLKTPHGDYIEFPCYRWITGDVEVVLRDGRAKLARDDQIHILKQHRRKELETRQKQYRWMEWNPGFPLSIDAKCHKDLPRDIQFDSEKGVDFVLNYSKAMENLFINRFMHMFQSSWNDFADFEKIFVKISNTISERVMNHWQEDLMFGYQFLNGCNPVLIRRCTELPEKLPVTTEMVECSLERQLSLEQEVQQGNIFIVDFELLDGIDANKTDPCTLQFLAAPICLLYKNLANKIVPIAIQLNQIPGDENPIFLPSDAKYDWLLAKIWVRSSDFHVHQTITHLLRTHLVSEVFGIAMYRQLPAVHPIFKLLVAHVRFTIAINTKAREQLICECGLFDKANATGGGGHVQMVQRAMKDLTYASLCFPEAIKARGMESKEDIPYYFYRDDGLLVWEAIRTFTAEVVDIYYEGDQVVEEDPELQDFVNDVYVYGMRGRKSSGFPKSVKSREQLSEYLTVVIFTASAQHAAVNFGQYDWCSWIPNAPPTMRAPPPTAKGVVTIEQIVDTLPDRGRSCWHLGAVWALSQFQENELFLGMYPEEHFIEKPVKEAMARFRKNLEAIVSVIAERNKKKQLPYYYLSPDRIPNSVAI

Leukotriene C4 synthase = biological target: T6, Leukotriene C4 synthase (Homo sapiens, UniProt Q16873); test: Inhibition of human LTC4 synthase expressed in HEK293 cell microsomes preincubated for 10 mins followed by LTA4-methyl ester addition and measured after 10 mins by UPLC-MS/MS analysis
T6 sequence (Q16873 whole entry): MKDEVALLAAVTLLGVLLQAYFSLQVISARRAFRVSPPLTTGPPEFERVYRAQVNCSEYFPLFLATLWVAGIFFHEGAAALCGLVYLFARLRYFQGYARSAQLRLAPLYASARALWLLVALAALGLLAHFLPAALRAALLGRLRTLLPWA

[7] = biological target: T1, Arachidonate 5-lipoxygenase-activating protein (Homo sapiens); test: Inhibition of FLAP in A23187-stimulated human neutrophils assessed as remaining enzyme activity by measuring 5-LO product formation at 10 uM preincubated for 15 mins followed by A23187 and arachidonic acid addition and measured after 10 mins by UV based RP-HPLC analysis (reference value: 100%)
[8] = biological target: T1, Arachidonate 5-lipoxygenase-activating protein (Homo sapiens); test: Inhibition of FLAP in A23187-stimulated human neutrophils assessed as reduction in 5-LO product formation at 1 uM preincubated for 15 mins followed by A23187 and arachidonic acid addition and measured after 10 mins by UV based RP-HPLC analysis
[9] = biological target: T7, Polyunsaturated fatty acid 5-lipoxygenase (Homo sapiens) (UniProt P09917); details: 0.3 uM
T7 sequence (whole entry): T5 sequence (P09917 whole entry)
Description: Inhibition of recombinant human 5-LO expressed in Escherichia coli BL21 at 0.3 uM incubated for 15 mins prior to prewarming for 30 secs followed by CaCl2+ and arachidonic acid addition and measured after 10 mins by RP-HPLC analysis

SMILES	Activity [1] [%]	IC50 [2] [nM]	Activity [3] [%]	inhibition [4] [%]	other results
CC(C)Cc1ccc(C(C)c2nc3c(C(=O)O)cccc3n2Cc2ccccc2Cl)cc1 (stereo unspecified)	85	400	85		
CC(C)Cc1ccc(C(C)c2nc3cc(CC(=O)O)ccc3n2Cc2ccccc2Cl)cc1 (stereo unspecified)	16.1	450	91.4	> 50	
CCC(C)c1ccc(C(C)c2nc3cc(C#N)ccc3n2Cc2ccccc2Cl)cc1 (stereo unspecified)	33.6	700	92.1		
CC(C)Cc1ccc(C(C)c2nc3cc(S(N)(=O)=O)ccc3n2Cc2ccccc2Cl)cc1 (stereo unspecified)	16.8	280	77.8	> 50	
CC(C)CCc1ccc(C(C)c2nc3cc(C#N)ccc3n2Cc2ccccc2Cl)cc1 (stereo unspecified)	87.2	18000	118		Activity [7]: 66%
CC(C)Cc1ccc(C(C)c2nc3c(CC(=O)O)cccc3n2Cc2ccccc2Cl)cc1 (stereo unspecified)	49.3	> 1000	99.3	> 50	inhibition [8]: 50%
N#Cc1ccc2c(c1)nc(NCc1ccc3[nH]ccc3c1)n2Cc1ccccc1Cl	84.7	3800	92.3		Activity [7]: 44%
N#Cc1ccc2c(c1)nc(CCc1ccc(-c3ccc(N)nn3)cc1)n2Cc1ccccc1Cl	25.6	660	85.6		
C=C(Cc1ccc(-c2cnc(N)nc2)cc1)c1nc2cc(C#N)ccc2n1Cc1ccccc1Cl		370			
N#Cc1ccc2c(c1)nc(NCCc1c[nH]c3ccccc13)n2Cc1ccccc1Cl	99.2	8800	97.1		Activity [7]: 63%
CC(C)Oc1ccc(-c2nc3cc(C#N)ccc3n2Cc2ccccc2Cl)cc1	68.4		93.7		
CC(c1ccc(CC(C)(C)C)cc1)c1nc2cc(C#N)ccc2n1Cc1ccccc1Cl (stereo unspecified)	51.5	1700	117		
CC(C)Cc1ccc(C(C)c2nc3cc(C#N)ccc3n2Cc2ccccc2Cl)cc1 (stereo unspecified)				> 50	
CC(C)Cc1ccc(C(C)c2nc3cc(-c4nnn[nH]4)ccc3n2Cc2ccccc2Cl)cc1 (stereo unspecified)	0	320	90.2	> 50	
N#Cc1ccc2c(c1)nc(NCc1ccc3cc[nH]c3c1)n2Cc1ccccc1Cl	98.5	> 10000	93.6		Activity [7]: 84%
CC(C)Cc1ccc(-c2nc3cc(C#N)ccc3n2Cc2ccccc2Cl)cc1	74.3		93		
CC(Cc1ccc(-c2cnc(N)nc2)cc1)c1nc2cc(C#N)ccc2n1Cc1ccccc1Cl (stereo unspecified)	4.2	420	84.1	< 50	
N#Cc1ccc2c(c1)nc(CCc1ccc(-c3cnc(N)nc3)cc1)n2Cc1ccccc1Cl	8.3	370	85.5	< 50	
CC(=O)N(O)C/C=C/c1cccc(Oc2ccccc2)c1					inhibition [9]: > 70%
CC(C)Cc1ccc(C(C)c2nc3cc(-c4ccccc4C(=O)O)ccc3n2Cc2ccccc2Cl)cc1 (stereo unspecified)	65	1100	104	> 50	
CC(C)c1ccc2c(c1)c(SC(C)(C)C)c(CC(C)(C)C(=O)O)n2Cc1ccc(Cl)cc1					IC50 [6]: 3000 nM
CC(C)Cc1ccc(C(C)c2nc3cc(C(=O)O)ccc3n2Cc2ccccc2Cl)cc1 (stereo unspecified)	0	280	71.1	> 50	

Now from value to compound, other results behind:

Activity [1] [%]	IC50 [2] [nM]	Activity [3] [%]	inhibition [4] [%]	SMILES	other results
3.5	260	72.7		N#Cc1ccc2c(c1)nc(CCc1ccc(-c3cnc(N)cn3)cc1)n2Cc1ccccc1Cl	
1.4	250	76.1		N#Cc1ccc2c(c1)nc(CCc1ccc(-c3ccc(N)nc3)cc1)n2Cc1ccccc1Cl	
5.47	200	75.9	> 50	CC(C)Cc1ccc(C(C)c2nc3cc(OC(C)(C)C(=O)O)ccc3n2Cc2ccccc2Cl)cc1 (stereo unspecified)	
1.06	150	72.7	> 50	CC(C)Cc1ccc(C(C)c2nc3cc(-c4nc(C(=O)O)cs4)ccc3n2Cc2ccccc2Cl)cc1 (stereo unspecified)	
0	50	41.4	> 50	CC(C)Cc1ccc(C(C)c2nc3cc(-c4n[nH]c(=S)o4)ccc3n2Cc2ccccc2Cl)cc1 (stereo unspecified)	IC50 (Prostaglandin E synthase): 420 nM; inhibition [5]: Dose-dependent effect; IC50 [6]: 600 nM; IC50 (Leukotriene C4 synthase): 6190 nM
0.45	160	63.1		CC(C)Cc1ccc(C(C)c2nc3cc(C(N)=S)ccc3n2Cc2ccccc2Cl)cc1 (stereo unspecified)	
6.38	180	67.3	> 50	CC(C)Cc1ccc(C(C)c2nc3cc(OCC(=O)O)ccc3n2Cc2ccccc2Cl)cc1 (stereo unspecified)	
0	40	3.73	> 50	CC(C)Cc1ccc(C(C)c2nc3cc(-c4ccc(C(=O)O)cc4)ccc3n2Cc2ccccc2Cl)cc1 (stereo unspecified)	IC50 (Prostaglandin E synthase): 2100 nM; inhibition [5]: Dose-dependent effect; IC50 [6]: 3200 nM; IC50 (Leukotriene C4 synthase): 15900 nM
0	130	64		CC(C)Cc1ccc(C(C)c2nc3cc(C(N)=O)ccc3n2Cc2ccccc2Cl)cc1 (stereo unspecified)	
0.5	100	40.5		CC(C)Cc1ccc(C(C)c2nc3cc(-c4n[nH]c(=O)o4)ccc3n2Cc2ccccc2Cl)cc1 (stereo unspecified)	
1	190	85	> 50	CC(C)Cc1ccc(C(C)c2nc3c(CCC(=O)O)cccc3n2Cc2ccccc2Cl)cc1 (stereo unspecified)	
0.67	270	87.6	> 50	CC(C)Cc1ccc(C(C)c2nc3cc(-c4noc(=O)[nH]4)ccc3n2Cc2ccccc2Cl)cc1 (stereo unspecified)	
1.9	180	79		Cc1nc(-c2ccc3c(c2)nc(C(C)c2ccc(CC(C)C)cc2)n3Cc2ccccc2Cl)no1 (stereo unspecified)	
0.45	90	63.1	< 50	CC(C)Cc1ccc(C(C)c2nc3cc(-c4nnco4)ccc3n2Cc2ccccc2Cl)cc1 (stereo unspecified)	
0	74	33	> 50	CC(C)Cc1ccc(C(C)c2nc3cc(-c4cccc(C(=O)O)c4)ccc3n2Cc2ccccc2Cl)cc1 (stereo unspecified)	
